The term IC50 denotes the concentration that gives 50% inhibition.

Common to all, as to assay type: biochemical
One experiment addresses T1, CDKL3(h) (Homo sapiens, UniProt Q8IVW4).
T1 construct: purchased Eurofins (KinaseProfiler)
Description: radiometric kinase assay (KinaseProfiler, Eurofins), CDKL3. Particulars: in vitro radiometric kinase assay, tested at 1 nM to 10 000 nM, no pre-incubation; read-out: inhibitory activities (IC50 values) CDKL3. Here is the method: (§1) The compounds were profiled in the radiometric assays (KinaseProfiler, Eurofins).
(§2) Briefly, kinases were diluted in the buffer shown below prior to addition to the reaction mix: • CDKL3, TAF1L: 20 mM Tris/HCl pH 8.5, 0.2 mM EDTA, 0.1% β-mercaptoethanol, 0.01% Brij-35, 5% glycerol, 1 mg/ml BSA; • Haspin: 15 mM MOPS, 0.75 mM EDTA, 0.0075% Brij-35, 3.75% Glycerol, 150 mM NaCl, 0.1% β-mercaptoethanol, 1 mg/mLBSA; • CDKL4, CLK2, PIM1, TRB2: […], 1 mM EDTA, 0.01% Brij-35, 5% Glycerol, 0.1% β-mercaptoethanol, 1 mg/mL BSA.
(§3) All compounds were prepared to 50x final assay concentration in 100% DMSO. This working stock of the compound was added to the assay well as the first component in the reaction, followed by the remaining components as detailed in the general assay protocols below. There was no pre-incubation step between the compound and the kinase prior to initiation of the reaction.
CDKL3(h) was incubated with 8 mM MOPS pH 7.0, 0.2 mM EDTA, 250 µM RRRFRPASPLRGPPK (SEQ ID NO. 1), 10 mM magnesium acetate and γ-^33P-ATP (specific activity and concentration as required). The reaction was initiated by the addition of the Mg/ATP mix. After incubation for 120 minutes at room temperature, the reaction was stopped by the addition of phosphoric acid to a concentration of 0.5%. An aliquot of the stopped reaction was spotted onto a filter and washed four times for 4 minutes in 0.425% phosphoric acid and once in methanol prior to drying and scintillation counting.
(§4) Kinase activity data were expressed as the percent remaining kinase activity in tested samples compared to the vehicle (DMSO) reactions. The compounds were tested at the following concentrations: 1 nM, 3 nM, 10 nM, 30 nM, 100 nM, 300 nM, 1000 nM, 3000 nM, and 10 000 nM; IC50 values and curve fits were then obtained.

Another experiment concerns the target T2, CDKL4(h) (Homo sapiens, UniProt Q5MAI5).
T2 construct: purchased Eurofins (KinaseProfiler)
Description: radiometric kinase assay (KinaseProfiler, Eurofins), CDKL4. Particulars: in vitro radiometric kinase assay, tested at 1 nM to 10 000 nM, no pre-incubation; read-out: inhibitory activities (IC50 values) CDKL4. The protocol: as §1, §2, §3
CDKL4(h) was incubated with 8 mM MOPS pH 7.0, 0.2 mM EDTA, 250 µM RRRFRPASPLRGPPK (SEQ ID NO. 1), 10 mM magnesium acetate and γ-^33P-ATP (specific activity and concentration as required). The reaction was initiated by the addition of the Mg/ATP mix. After incubation for 120 minutes at room temperature, the reaction was stopped by the addition of phosphoric acid to a concentration of 0.5%. An aliquot of the stopped reaction was spotted onto a filter and washed four times for 4 minutes in 0.425% phosphoric acid and once in methanol prior to drying and scintillation counting.
as §4

Another experiment has as its target T3, CLK2 (h) (Homo sapiens, UniProt P49760).
T3 construct: purchased Eurofins (KinaseProfiler)
Description: radiometric kinase assay (KinaseProfiler, Eurofins), CLK2. As to conditions: in vitro radiometric kinase assay, tested at 1 nM to 10 000 nM, no pre-incubation; read-out: inhibitory activities (IC50 values) CLK2. Here is the method: as §1, §2, §3
CLK2 (h) was incubated with 8 mM MOPS pH 7.0, 0.2 mM EDTA, 20 µM […](p)EDEEE (SEQ ID NO. 2), 10 mM magnesium acetate and γ-^33P-ATP (specific activity and concentration as required). The reaction was initiated by the addition of the Mg/ATP mix. After incubation for 40 minutes at room temperature, the reaction was stopped by the addition of phosphoric acid to a concentration of 0.5%. An aliquot of the reaction was then spotted onto a filter and washed four times for 4 minutes in 0.425% phosphoric acid and once in methanol prior to drying and scintillation counting.
as §4

The next experiment concerns the target T4, TAF1L(h) (Homo sapiens, UniProt Q8IZX4).
T4 construct: purchased Eurofins (KinaseProfiler)
Nature of the experiment: radiometric kinase assay (KinaseProfiler, Eurofins), TAF1L. Particulars: in vitro radiometric kinase assay, tested at 1 nM to 10 000 nM, no pre-incubation; read-out: inhibitory activities (IC50 values) TAF1L. Here is the method:
as §1, §2, §3
TAF1L(h) was incubated with 20 mM Tris/HCl pH 8.5, 0.2 mM EDTA, 250 µM RRRFRPASPLRGPPK (SEQ ID NO. 1), 10 mM magnesium acetate and γ-^33P-ATP (specific activity and concentration as required). The reaction was initiated by the addition of the Mg/ATP mix. After incubation for 120 minutes at room temperature, the reaction was stopped by the addition of phosphoric acid to a concentration of 0.5%. An aliquot of the stopped reaction was spotted onto a filter and washed four times for 4 minutes in 0.425% phosphoric acid and once in methanol prior to drying and scintillation counting.
as §4

The target in another experiment is T5, TRB2(h) (Homo sapiens, UniProt Q92519).
T5 construct: purchased Eurofins (KinaseProfiler)
T5 sequence (Q92519 1-343): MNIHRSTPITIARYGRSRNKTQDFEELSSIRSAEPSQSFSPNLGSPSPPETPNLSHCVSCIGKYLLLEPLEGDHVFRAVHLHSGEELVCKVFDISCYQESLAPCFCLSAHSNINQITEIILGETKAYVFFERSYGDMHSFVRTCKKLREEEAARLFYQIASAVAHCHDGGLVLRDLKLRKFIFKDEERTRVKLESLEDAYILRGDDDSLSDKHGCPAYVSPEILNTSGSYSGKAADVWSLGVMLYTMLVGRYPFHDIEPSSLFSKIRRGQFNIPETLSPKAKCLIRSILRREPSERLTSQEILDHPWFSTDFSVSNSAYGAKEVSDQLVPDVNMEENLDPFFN
Description: radiometric kinase assay (KinaseProfiler, Eurofins), TRB2. Particulars: in vitro radiometric kinase assay, tested at 1 nM to 10 000 nM, no pre-incubation; read-out: inhibitory activities (IC50 values) TRB2. Here is the method:
as §1, §2, §3
TRB2(h) was incubated with 8 mM MOPS pH 7.0, 0.2 mM EDTA, 250 µM RRRFRPASPLRGPPK (SEQ ID NO. 1), 10 mM magnesium acetate and γ-^33P-ATP (specific activity and concentration as required). The reaction was initiated by the addition of the Mg/ATP mix. After incubation for 120 minutes at room temperature, the reaction was stopped by the addition of phosphoric acid to a concentration of 0.5%. An aliquot of the stopped reaction was spotted onto a filter and washed four times for 4 minutes in 0.425% phosphoric acid and once in methanol prior to drying and scintillation counting.
as §4

T4 sequence (Q8IZX4 whole entry): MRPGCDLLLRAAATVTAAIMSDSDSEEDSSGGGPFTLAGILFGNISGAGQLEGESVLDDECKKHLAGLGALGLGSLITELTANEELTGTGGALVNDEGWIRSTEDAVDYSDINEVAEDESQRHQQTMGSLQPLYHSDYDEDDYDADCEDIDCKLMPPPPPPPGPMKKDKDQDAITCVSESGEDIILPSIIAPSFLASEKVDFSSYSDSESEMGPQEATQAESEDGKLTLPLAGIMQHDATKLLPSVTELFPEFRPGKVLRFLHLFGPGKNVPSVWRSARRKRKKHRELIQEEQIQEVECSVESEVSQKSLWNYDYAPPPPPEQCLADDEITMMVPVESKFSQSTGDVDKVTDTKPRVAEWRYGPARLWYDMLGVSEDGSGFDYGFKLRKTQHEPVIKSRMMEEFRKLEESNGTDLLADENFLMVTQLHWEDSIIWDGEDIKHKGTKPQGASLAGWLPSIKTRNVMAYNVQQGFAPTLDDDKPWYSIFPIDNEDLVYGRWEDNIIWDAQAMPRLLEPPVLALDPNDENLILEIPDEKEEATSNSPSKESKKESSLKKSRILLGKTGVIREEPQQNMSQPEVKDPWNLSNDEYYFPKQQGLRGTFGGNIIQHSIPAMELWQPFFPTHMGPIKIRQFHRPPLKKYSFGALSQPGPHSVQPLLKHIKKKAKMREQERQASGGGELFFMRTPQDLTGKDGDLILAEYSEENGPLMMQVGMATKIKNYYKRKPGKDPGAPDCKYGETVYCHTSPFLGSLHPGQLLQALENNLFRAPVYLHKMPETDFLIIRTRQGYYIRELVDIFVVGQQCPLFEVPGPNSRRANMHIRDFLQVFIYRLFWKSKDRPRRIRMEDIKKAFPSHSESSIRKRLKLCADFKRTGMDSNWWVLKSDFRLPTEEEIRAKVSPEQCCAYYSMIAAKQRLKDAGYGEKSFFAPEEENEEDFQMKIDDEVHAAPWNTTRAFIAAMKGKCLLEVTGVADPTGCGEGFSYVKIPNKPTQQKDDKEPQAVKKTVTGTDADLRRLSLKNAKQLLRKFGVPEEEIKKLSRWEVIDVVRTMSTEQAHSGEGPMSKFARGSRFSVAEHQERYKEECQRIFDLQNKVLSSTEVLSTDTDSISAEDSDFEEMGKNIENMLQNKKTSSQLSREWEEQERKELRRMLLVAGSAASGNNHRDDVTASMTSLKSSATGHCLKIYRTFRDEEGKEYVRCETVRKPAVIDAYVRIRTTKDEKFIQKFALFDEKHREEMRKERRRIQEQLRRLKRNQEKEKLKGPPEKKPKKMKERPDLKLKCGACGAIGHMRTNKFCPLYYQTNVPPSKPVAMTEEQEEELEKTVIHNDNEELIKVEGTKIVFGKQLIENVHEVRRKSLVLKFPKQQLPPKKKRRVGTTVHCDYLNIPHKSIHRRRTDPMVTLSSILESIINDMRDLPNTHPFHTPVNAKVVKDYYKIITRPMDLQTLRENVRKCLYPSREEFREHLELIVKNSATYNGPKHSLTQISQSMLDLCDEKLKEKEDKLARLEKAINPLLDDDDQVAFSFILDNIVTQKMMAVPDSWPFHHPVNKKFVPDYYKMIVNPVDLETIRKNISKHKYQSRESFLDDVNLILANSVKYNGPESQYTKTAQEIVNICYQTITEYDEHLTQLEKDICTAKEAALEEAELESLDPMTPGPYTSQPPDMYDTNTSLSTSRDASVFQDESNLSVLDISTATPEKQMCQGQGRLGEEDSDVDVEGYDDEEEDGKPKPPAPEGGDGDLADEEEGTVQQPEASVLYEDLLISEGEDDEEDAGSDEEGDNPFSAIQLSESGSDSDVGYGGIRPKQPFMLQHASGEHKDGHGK
T2 sequence (Q5MAI5 whole entry): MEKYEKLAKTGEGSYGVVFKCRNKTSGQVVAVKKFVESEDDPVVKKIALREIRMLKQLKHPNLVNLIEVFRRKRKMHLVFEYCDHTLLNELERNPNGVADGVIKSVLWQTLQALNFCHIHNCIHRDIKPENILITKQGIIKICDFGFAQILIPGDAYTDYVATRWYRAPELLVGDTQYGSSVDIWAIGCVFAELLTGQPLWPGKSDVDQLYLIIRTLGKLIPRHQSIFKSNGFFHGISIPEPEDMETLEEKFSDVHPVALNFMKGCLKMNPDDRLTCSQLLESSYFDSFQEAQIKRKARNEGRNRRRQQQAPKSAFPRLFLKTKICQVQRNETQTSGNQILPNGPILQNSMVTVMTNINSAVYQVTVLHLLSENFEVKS
T1 sequence (Q8IVW4 whole entry): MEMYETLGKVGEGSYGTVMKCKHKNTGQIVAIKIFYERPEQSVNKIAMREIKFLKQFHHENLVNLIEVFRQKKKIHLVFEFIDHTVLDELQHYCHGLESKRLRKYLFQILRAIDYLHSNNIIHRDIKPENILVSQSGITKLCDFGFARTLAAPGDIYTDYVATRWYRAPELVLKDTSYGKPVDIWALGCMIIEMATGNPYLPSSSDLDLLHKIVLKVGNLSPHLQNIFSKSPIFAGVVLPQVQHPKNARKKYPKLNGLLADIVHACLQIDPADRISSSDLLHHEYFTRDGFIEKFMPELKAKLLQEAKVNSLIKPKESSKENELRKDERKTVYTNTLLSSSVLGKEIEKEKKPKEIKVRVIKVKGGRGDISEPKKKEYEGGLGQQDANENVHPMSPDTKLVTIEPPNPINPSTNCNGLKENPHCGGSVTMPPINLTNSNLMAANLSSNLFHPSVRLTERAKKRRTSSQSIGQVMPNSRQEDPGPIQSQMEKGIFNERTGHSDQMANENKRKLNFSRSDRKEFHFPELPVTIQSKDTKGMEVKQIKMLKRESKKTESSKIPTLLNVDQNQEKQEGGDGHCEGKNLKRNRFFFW
T3 sequence (P49760 whole entry): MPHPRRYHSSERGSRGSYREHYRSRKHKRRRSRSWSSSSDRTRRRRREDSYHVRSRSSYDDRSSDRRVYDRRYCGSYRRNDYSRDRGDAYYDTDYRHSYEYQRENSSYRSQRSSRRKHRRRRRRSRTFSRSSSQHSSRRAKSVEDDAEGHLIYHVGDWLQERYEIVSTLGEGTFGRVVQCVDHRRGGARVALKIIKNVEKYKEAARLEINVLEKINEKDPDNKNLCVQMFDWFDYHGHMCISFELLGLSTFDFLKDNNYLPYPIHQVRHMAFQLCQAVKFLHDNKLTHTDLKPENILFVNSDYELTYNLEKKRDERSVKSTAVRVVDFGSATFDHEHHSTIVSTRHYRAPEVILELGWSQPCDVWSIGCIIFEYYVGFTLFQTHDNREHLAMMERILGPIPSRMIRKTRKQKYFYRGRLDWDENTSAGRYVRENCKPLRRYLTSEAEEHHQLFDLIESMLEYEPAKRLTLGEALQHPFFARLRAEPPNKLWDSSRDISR

`Cc1nsc(-c2csc3ccc(-c4cnn(C)c4)nc23)n1` [Preparative Example 71, 3-(3-methyl-1,2,4-thiadiazol-5-yl)-5-(1-methyl-1H-pyrazol-4-yl)thieno[3,2-b]pyridine]: the IC50 on CDKL3(h) lay in the range of 100 to 499 nM; on CDKL4(h), 100 to 499 nM; on CLK2 (h), 500 to 3000 nM; on TAF1L(h), 100 to 499 nM; at TRB2(h), 100 to 499 nM.

Regarding `Cn1cc(-c2ccc3scc(C(=O)c4ccccc4)c3n2)cn1` [Preparative Example 73, (5-(1-methyl-1H-pyrazol-4-yl)thieno[3,2-b]pyridin-3-yl)(phenyl)-methanone], the IC50 at CDKL3(h), at CDKL4(h), on CLK2 (h), at TAF1L(h) and at TRB2(h) was 3000 to 10000 nM throughout.

Consider `c1ccc(-c2csc3ccc(-c4ccoc4)nc23)cc1` [Preparative Example 123, 5-(furan-3-yl)-3-phenylthieno[3,2-b]pyridine], for which the IC50 on CDKL3(h), on CDKL4(h), at CLK2 (h), on TAF1L(h) and on TRB2(h) was 3000 to 10000 nM each time.

Regarding `c1ccc(Cn2cc(-c3ccc4scc(-c5ccncc5)c4n3)cn2)cc1` [Preparative Example 81, 5-(1-benzyl-1H-pyrazol-4-yl)-3-(pyridin-4-yl)thieno[3,2-b]pyridine], the IC50 is 500 to 3000 nM at CDKL3(h); 500 to 3000 nM at CDKL4(h); 3000 to 10000 nM on CLK2 (h); 500 to 3000 nM at TAF1L(h); 3000 to 10000 nM at TRB2(h).

For the molecule `Fc1cc(-c2ccc3scc(-c4ccccc4)c3n2)cc(F)c1F` [Preparative Example 122, 3-phenyl-5-(3,4,5-trifluorophenyl)thieno[3,2-b]pyridine], the 50% inhibitory concentration (IC50) on CDKL3(h), on CDKL4(h), at CLK2 (h), on TAF1L(h) and at TRB2(h) was 3000 to 10000 nM in each case.

For the molecule `FC(F)(F)n1cc(-c2ccc3scc(-c4ccncc4)c3n2)cn1` [Preparative Example 78, 3-(pyridin-4-yl)-5-(1-(trifluoromethyl)-1H-pyrazol-4-yl)thieno[3,2-b]pyridine], the IC50 on CDKL3(h) was in the range of 500 to 3000 nM; at CDKL4(h), 500 to 3000 nM; at CLK2 (h) it was 3000 to 10000 nM; at TAF1L(h), 3000 to 10000 nM; on TRB2(h), 3000 to 10000 nM.

For the molecule `Cn1ncc(-c2ccc3scc(-c4ccncc4)c3n2)n1` [Preparative Example 94, 5-(2-methyl-2H-1,2,3-triazol-4-yl)-3-(pyridin-4-yl)thieno[3,2-b]pyridine], the IC50 lay within 500 to 3000 nM at CDKL3(h); 500 to 3000 nM at CDKL4(h); 3000 to 10000 nM at CLK2 (h); 500 to 3000 nM on TAF1L(h); 500 to 3000 nM at TRB2(h).

Take `Cn1ccc(-c2cc(Cl)c3scc(-c4ccncc4)c3n2)n1` [Preparative Example 163, 7-chloro-5-(1-methyl-1H-pyrazol-3-yl)-3-(pyridin-4-yl)thieno[3,2-b]pyridine]: the IC50 on CDKL3(h) fell in the range of 500 to 3000 nM; on CDKL4(h), 500 to 3000 nM; at CLK2 (h), 3000 to 10000 nM; on TAF1L(h), 500 to 3000 nM; on TRB2(h) it was 500 to 3000 nM.

Turning to `CCn1cc(-c2ccc3scc(-c4ccncc4)c3n2)cn1` [Preparative Example 77, 5-(1-ethyl-1H-pyrazol-4-yl)-3-(pyridin-4-yl)thieno[3,2-b]pyridine], the IC50 at CDKL3(h) was in the range of 500 to 3000 nM; at CDKL4(h), 500 to 3000 nM; at CLK2 (h), 3000 to 10000 nM; at TAF1L(h), 500 to 3000 nM; on TRB2(h), 500 to 3000 nM.

For `Cn1cc(-c2csc3ccc(Oc4ccccc4)nc23)cn1` [Preparative Example 139, 3-(1-methyl-1H-pyrazol-4-yl)-5-phenoxythieno[3,2-b]pyridine], the IC50 fell in the range of 3000 to 10000 nM at CDKL3(h); 500 to 3000 nM on CDKL4(h); 500 to 3000 nM at CLK2 (h); 500 to 3000 nM on TAF1L(h); 500 to 3000 nM at TRB2(h).

`Cc1cc(-c2csc3ccc(-c4cnn(C)c4)nc23)ccn1` [Preparative Example 15, 5-(1-methyl-1H-pyrazol-4-yl)-3-(2-methylpyridin-4-yl)-thieno[3,2-b]pyridine]: the half-maximal inhibitory concentration (IC50) on CDKL3(h) lay within 100 to 499 nM; at CDKL4(h) it was 100 to 499 nM; at CLK2 (h), 500 to 3000 nM; at TAF1L(h), 100 to 499 nM; at TRB2(h) it was 100 to 499 nM.

Consider `c1cc(-c2csc3ccc(Nc4cc[nH]n4)nc23)ccn1` [Preparative Example 101, N-(1H-pyrazol-3-yl)-3-(pyridin-4-yl)thieno[3,2-b]pyridin-5-amine], for which the IC50 was 20 to 99 nM on CDKL3(h); 100 to 499 nM on CDKL4(h); 100 to 499 nM at CLK2 (h); 20 to 99 nM on TAF1L(h); 20 to 99 nM on TRB2(h).

Regarding `Cn1cc(-c2ccc3scc(-c4cnn(Cc5ccccc5)c4)c3n2)cn1`, the IC50 lay within 500 to 3000 nM at CDKL3(h); 100 to 499 nM on CDKL4(h); 3000 to 10000 nM at CLK2 (h); 100 to 499 nM on TAF1L(h); 500 to 3000 nM at TRB2(h).

As to `Cc1cc(-c2csc3ccc(-c4cnn(C)c4)nc23)cc(C)n1` [Preparative Example 30, 3-(2,6-dimethylpyridin-4-yl)-5-(1-methyl-1H-pyrazol-4-yl)thieno-[3,2-b]pyridine], the concentration for half-maximal inhibition (IC50) at CDKL3(h) lay in the range of 500 to 3000 nM; at CDKL4(h), 100 to 499 nM; at CLK2 (h), 3000 to 10000 nM; on TAF1L(h) it was 100 to 499 nM; at TRB2(h), 500 to 3000 nM.

Take `COc1cc(-c2ccn(C)n2)nc2c(-c3ccncc3)csc12` [Preparative Example 165, 7-methoxy-5-(1-methyl-1H-pyrazol-3-yl)-3-(pyridin-4-yl)thieno[3,2-b]pyridine]: the IC50 at CDKL3(h) lay within 500 to 3000 nM; at CDKL4(h), 500 to 3000 nM; on CLK2 (h), 3000 to 10000 nM; on TAF1L(h), 500 to 3000 nM; at TRB2(h) it was 500 to 3000 nM.

The values above are taken from patent EP4483954A1 (Masarykova Univerzita, priority 2023, dated 2025).
